Assay [1] concerns the target Mitogen-activated protein kinase 10 (Homo sapiens, UniProt P53779). The assay is described as follows: Dose response biochemical screening assay for inhibitors of c-Jun N-Terminal Kinase 3 (JNK3). [Related pubchem assays: 746 ].
A short description of assay [2]: Jurkat T cell cytotoxicity, dose response, cytotoxicity control for P. falciparum gametocyte viability project, luminescence (AID 1117277).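 Further: potency reflects loss of cellular ATP meaning fewer viable cells.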 Format: functional, cell-based.
Assay [3] is described as follows: P. falciparum late gametocyte killing, dose response, luminescence (AID 1117278).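 Further: gametocytes exposed to compound for 24 hours.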 Type of assay: functional, cell-based.
The test system of the next assay is HT-1080. The assay is described as follows: cytotoxicity in HT1080 fibrosarcoma cells, cell-based, fluorescence readout (AID 620). Type of assay: functional. To be noted: Homo sapiens.
Assay [4] deals with Luciferin 4-monooxygenase (Photinus pyralis, UniProt P08659). The assay is described as follows: Counter Screen for Luciferase-based Assay Positives. [Related pubchem assays: 620, 618, 411 ].
Sequence of Luciferin 4-monooxygenase (P08659 whole entry): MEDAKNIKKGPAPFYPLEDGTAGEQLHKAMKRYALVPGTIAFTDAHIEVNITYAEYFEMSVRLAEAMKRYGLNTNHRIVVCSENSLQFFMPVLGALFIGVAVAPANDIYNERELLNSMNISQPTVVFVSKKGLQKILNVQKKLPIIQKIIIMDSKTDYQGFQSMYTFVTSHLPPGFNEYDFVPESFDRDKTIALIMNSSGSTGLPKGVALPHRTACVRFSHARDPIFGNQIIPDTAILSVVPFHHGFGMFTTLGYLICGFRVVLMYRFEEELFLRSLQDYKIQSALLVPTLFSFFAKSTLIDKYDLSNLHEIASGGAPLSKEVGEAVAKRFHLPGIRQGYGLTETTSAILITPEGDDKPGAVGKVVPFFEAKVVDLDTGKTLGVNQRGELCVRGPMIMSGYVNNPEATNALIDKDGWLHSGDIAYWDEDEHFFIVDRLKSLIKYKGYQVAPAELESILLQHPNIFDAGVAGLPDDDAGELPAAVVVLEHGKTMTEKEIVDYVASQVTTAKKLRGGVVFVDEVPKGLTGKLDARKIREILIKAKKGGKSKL
Assay [5] deals with Heat shock protein HSP 90-alpha (Homo sapiens, UniProt P07900). Type of assay: functional, organism-based.
A short description of assay [6]: inhibitors of intracellular T. cruzi replication, confirmation, NIH3T3 host cells, beta-gal luminescence (AID 2044).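 Further: intracellular parasites grown in NIH/3T3 mouse fibroblasts as host cells; luminescent beta-galactosidase reporter signal from transgenic T. cruzi replicating inside host cells; inhibitors lower the luminescence signal.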 Type of assay: functional, cell-based.
Assay [7] is described as follows: cytotoxicity toward NIH3T3 fibroblasts, dose response, counter-screen, cell-based, ATP luminescence, mouse fibroblasts (AID 2010).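 Further: cells exposed to compound for about 90 hours before reading.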 Format: functional.
For assay [8], the target named is Induced myeloid leukemia cell differentiation protein Mcl-1 (Homo sapiens, UniProt Q07820). Type of assay: functional.
Sequence of Induced myeloid leukemia cell differentiation protein Mcl-1 (Q07820 whole entry): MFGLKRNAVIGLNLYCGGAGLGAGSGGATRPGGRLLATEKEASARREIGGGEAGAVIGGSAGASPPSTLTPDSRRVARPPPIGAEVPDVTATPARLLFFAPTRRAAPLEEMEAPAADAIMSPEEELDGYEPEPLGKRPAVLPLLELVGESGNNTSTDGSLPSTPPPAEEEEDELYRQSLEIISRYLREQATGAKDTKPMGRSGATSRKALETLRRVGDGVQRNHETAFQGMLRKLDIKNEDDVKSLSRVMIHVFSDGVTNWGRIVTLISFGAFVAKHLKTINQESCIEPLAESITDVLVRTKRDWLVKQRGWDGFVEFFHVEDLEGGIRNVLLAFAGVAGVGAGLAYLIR
Assay [9] concerns the target T1, Tyrosine-protein phosphatase non-receptor type 7 (Homo sapiens, UniProt P35236).
T1 sequence (P35236 whole entry): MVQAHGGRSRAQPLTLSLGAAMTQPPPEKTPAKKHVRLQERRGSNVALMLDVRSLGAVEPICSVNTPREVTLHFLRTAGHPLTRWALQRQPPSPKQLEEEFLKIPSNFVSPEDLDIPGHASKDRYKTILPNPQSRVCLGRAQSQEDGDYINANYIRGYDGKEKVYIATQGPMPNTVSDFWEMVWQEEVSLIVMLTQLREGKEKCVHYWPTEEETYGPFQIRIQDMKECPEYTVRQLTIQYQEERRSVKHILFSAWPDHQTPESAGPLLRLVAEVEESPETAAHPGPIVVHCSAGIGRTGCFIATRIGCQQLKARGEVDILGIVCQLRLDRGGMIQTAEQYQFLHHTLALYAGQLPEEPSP
The assay is described as follows: inhibitors of human HePTP phosphatase, […], biochemical, absorbance, leukemia target (AID 521). Type of assay: functional.

For assay [10], the target named is T2, DNA repair protein RAD52 homolog (Homo sapiens, UniProt P43351).
T2 sequence (P43351 whole entry): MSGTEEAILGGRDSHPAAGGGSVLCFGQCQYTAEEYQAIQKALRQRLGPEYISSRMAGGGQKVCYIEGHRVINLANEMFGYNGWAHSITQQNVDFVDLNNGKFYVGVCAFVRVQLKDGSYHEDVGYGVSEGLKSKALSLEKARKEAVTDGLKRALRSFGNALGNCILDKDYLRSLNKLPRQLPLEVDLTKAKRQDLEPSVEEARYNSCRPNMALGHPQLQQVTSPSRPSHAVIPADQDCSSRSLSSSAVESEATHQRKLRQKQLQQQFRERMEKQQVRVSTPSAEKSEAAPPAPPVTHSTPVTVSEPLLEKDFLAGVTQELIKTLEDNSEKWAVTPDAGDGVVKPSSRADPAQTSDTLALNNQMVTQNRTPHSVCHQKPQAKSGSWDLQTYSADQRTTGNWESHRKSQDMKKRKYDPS
Type of assay: functional, biochemical.

The nature of assay [11]: M. tuberculosis H37Rv growth inhibitors, H37Rv strain (AID 1626). Type of assay: functional.
Assay [12] is described as follows: C. albicans growth with fluconazole, confirmation, fluorescence, retest (AID 2467). Type of assay: functional, cell-based.
Assay [13] concerns the target T3, RNA-binding protein pos-1 (Caenorhabditis elegans, UniProt G5EF15).
T3 sequence (G5EF15 whole entry): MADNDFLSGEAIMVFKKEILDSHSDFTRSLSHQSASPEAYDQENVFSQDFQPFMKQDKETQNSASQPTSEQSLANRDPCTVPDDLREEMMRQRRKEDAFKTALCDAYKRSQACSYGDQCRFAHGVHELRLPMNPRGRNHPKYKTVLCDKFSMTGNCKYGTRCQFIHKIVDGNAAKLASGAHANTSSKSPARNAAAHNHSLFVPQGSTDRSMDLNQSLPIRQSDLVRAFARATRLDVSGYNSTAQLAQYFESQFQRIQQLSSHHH
The assay is described as follows: inhibitors of POS-1/mex-3 RNA binding, dose response, biochemical, fluorescence polarization (AID 1964).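 Further: purified POS-1 fused to maltose binding protein made in E. coli; potency of compounds blocking POS-1 binding to fluorescent RNA.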

For assay [14], the target named is T4, Zinc finger protein mex-5 (Caenorhabditis elegans, UniProt Q9XUB2).
T4 sequence (Q9XUB2 whole entry): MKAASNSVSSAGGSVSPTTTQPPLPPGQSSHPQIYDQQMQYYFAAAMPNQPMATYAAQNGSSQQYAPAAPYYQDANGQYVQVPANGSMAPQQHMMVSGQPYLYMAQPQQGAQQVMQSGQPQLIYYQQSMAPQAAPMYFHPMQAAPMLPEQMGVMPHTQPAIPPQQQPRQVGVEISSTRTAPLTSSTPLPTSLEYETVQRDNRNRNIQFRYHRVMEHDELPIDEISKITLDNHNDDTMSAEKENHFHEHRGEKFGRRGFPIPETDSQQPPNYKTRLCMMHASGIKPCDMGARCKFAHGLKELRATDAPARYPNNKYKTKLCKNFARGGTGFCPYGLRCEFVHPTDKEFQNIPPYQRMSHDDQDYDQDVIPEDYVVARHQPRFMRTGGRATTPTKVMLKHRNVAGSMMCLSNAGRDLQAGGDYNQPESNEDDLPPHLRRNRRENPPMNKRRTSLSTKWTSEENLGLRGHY
The assay is described as follows: MEX-5/TCR-2 RNA interaction inhibitors, dose response, biochemical, C. elegans, fluorescence polarization (AID 1960).

Assay [15] deals with T5, Endoribonuclease toxin MazF (Escherichia coli K-12, UniProt P0AE70).
T5 sequence (P0AE70 whole entry): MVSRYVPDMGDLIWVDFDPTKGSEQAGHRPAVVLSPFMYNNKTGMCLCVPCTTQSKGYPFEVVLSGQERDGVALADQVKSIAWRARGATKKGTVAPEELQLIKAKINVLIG
The assay is described as follows: MazF toxin RNase activators, dose response, biochemical, fluorescence, single-stranded RNA substrate, uHTS hits (AID 588481). Format: functional.

Assay [16] in a line: THP-1 cell cytotoxicity, dose response, cytotoxicity control for Vif-APOBEC3G degradation inhibitor project, THP-1 cells (AID 1117359). Format: functional. Conditions: Human immunodeficiency virus 1, THP-1.
In assay [17] the target is T5, Endoribonuclease toxin MazF. The assay is described as follows: fluorescent RNA oligo signal without MazF, dose response, counter-screen for MazEF activator project, biochemical, fluorescence, single-stranded RNase substrate (AID 588502). Type of assay: functional.
The target of assay [18] is T6, Corticotropin-releasing factor receptor 2/Corticotropin-releasing factor-binding protein (Homo sapiens, UniProt P24387+Q13324).
T6 sequence (Q13324 whole entry): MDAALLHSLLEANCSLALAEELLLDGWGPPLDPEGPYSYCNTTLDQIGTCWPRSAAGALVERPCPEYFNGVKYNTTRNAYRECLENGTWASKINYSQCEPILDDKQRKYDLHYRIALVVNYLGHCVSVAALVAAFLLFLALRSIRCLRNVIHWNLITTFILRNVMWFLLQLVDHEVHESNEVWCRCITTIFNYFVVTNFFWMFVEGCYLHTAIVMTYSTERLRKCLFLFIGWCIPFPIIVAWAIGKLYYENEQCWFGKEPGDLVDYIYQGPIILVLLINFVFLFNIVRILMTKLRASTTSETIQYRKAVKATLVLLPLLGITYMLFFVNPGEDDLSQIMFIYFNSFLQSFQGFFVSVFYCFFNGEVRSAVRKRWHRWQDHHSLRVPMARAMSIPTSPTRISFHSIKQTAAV
T6 sequence (P24387 whole entry): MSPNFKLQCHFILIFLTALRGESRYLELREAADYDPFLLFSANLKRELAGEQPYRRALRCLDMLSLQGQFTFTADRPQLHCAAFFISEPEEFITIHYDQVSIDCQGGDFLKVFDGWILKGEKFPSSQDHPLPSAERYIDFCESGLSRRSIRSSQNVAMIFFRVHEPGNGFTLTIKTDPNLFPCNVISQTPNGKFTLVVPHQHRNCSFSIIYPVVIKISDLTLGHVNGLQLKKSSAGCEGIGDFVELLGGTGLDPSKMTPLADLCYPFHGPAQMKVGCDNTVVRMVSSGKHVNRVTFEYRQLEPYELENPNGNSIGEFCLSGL
The assay is described as follows: activators of CRF receptor 2 with binding protein – uHTS hits, confirmation (AID 602473). Conditions: read-out: EC50_Mean. Type of assay: functional.

Assay [19] in a line: NIH-3T3 fibroblast cytotoxicity, dose response, cytotoxicity control, cell-based, fluorescence, Alamar Blue, secondary assay (AID 2327).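 Further: NIH-3T3 mouse fibroblasts cultured with fluconazole at 8 µg/mL.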 Format: functional.
In assay [20] the target is T7, Heat shock factor protein 1 (Mus musculus, UniProt P38532).
T7 sequence (P38532 whole entry): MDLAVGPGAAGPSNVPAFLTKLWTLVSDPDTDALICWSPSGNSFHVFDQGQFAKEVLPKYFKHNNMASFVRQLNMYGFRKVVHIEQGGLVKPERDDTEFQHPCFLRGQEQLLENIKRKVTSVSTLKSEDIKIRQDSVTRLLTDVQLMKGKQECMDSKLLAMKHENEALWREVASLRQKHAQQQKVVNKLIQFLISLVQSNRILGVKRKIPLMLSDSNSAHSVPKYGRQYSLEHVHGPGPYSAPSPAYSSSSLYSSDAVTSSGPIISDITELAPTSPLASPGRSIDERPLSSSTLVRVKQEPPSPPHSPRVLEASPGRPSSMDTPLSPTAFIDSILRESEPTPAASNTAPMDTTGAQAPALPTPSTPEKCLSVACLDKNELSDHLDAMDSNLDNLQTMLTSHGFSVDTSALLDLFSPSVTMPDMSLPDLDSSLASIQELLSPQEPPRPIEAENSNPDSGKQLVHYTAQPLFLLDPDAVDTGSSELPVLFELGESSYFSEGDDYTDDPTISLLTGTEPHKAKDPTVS
The assay is described as follows: HSF1 potentiators in luciferase reporter cells, confirmation, cell-based, NIH3T3, luminescence, dose retest (AID 435004).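 Further: stress induced by proteasome inhibitor MG132 added 30 min after compound; luciferase reporter driven by HSF1 response element in NIH3T3 cells; actives raise luminescence as potentiators of the MG132 stress response.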 Format: functional.

Active and inactive are the calls of the source.

Sequence of Mitogen-activated protein kinase 10 (P53779 whole entry): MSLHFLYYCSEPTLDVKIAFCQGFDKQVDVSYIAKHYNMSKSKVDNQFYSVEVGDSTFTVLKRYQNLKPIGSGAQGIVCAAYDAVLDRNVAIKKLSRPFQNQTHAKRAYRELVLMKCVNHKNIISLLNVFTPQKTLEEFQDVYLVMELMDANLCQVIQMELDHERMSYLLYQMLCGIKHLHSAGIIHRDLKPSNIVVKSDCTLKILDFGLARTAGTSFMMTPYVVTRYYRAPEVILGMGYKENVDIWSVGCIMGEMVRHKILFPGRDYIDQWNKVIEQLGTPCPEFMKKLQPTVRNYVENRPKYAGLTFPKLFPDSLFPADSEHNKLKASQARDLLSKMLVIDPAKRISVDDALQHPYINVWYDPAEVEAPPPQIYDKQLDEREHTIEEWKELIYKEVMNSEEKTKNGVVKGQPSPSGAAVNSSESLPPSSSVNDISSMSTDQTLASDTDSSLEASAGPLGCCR

Consider `CCOC(=O)c1c(-c2ccc(OC)cc2)n[nH]c1N`, for which the 50% inhibitory concentration (IC50) in assay [1] is given as 63.1 µM (not active).

Take `CC(=O)NC1C(=O)N=C(SCc2ccccc2)NC1=O` (centres undefined): the IC50 was > 83.3 µM (inactive) in assay [2] and > 109 µM (inactive) in assay [3].

As to `CC1CCc2nc(NC(=O)C3CCCO3)sc2C1` (centres undefined), the EC50 in the assay on HT-1080 was > 50 µM (not active); in [4], < 0.2 µM (active).

Consider `N#Cc1c(N)nc2c(c1-c1ccncc1)CCCCC2`, for which the IC50 in assay [2] is > 83.4 µM (inactive); in [3], > 109 µM (inactive).

`Cc1c(Cc2ccccc2)c(NCCN(C)C)n2c(nc3ccccc32)c1C#N`: the half-maximal activity concentration (AC50) in assay [5] was 2.37 µM (active). For the same compound, the EC50 in assay [6] is < 0.1 µM (active); in the assay “cells” it was 0.015 µM (active); in [7] it was 34.1 µM (active). Also, the IC50 in assay [8] is 3.29 µM (active).

Consider `Cc1ccc(-c2csc(N=C(N)N)n2)c(C)c1`, for which the EC50 is < 0.1 µM (active) in [6], 0.167 µM (active) in “cells” and > 60 µM (not active) in assay [7].

For the compound `COc1ccccc1CNC(=O)Nc1cccs1`, in [9], the half-maximal inhibitory concentration (IC50) is on record as > 100 µM (not active).

Regarding `N#Cc1sc2nc3c(c(-c4ccco4)c2c1N)CCCC3`, the half-maximal inhibitory concentration (IC50) in [1] is 68.6 µM (not active).

For `Cc1ccc2nc(N(CCCN(C)C)C(=O)CN3C(=O)c4ccccc4C3=O)sc2c1`, the EC50 in [6] was < 0.1 µM (active); in “cells”, 0.055 µM (active); in [7], > 60 µM (not active). Further, the half-maximal activity concentration (AC50) in assay [10] was 21.7 µM (active).

Take `CC1(C)CC(=O)C(/C=N/c2ccc3c(c2)OCO3)=C(O)C1`: the IC50 in assay [11] is > 100 µM (active).

`CN1C(=O)C(=CNc2ccc3c(c2)CCC3)C(=O)N(C)C1=O`: the IC50 in assay [11] is > 100 µM (active).

For the compound `CNC(=O)C1=NCCCc2cc(OC)c(OC)cc21`, the half-inhibitory concentration (IC50) in assay [9] was > 100 µM (not active).

In the case of `CCCCOC(=O)c1ccc(NC(=O)C(=O)NCc2ccccn2)cc1`, the IC50 in assay [11] is > 100 µM (active).

For `CCCc1ccc(OCCNC(=O)CC)cc1`, the IC50 was > 83.4 µM (inactive) in assay [2] and > 109 µM (inactive) in assay [3].

For `CCN(CC)c1ccc(/N=C/c2ccc(N(CC)CC)cc2O)cc1`, the EC50 in [12] is > 38 µM (not active); in assay [6] it was 3.25 µM (active); in assay [13], > 300 µM (not active); in [7] it was > 60 µM (not active); in assay [14] it was > 300 µM (not active); in assay [15], > 99 µM (inactive). In addition, the EC50 in [17] was > 99 µM (inactive); in [18], 4.26 µM (active); in assay [19] it was 147 µM (inconclusive). In addition, in assay [16], the CC50 is > 40 µM (active).

With `O=C(NCc1cccc(F)c1)c1noc2c1CCCC2`, in assay [9], the IC50 is recorded as > 100 µM (not active). For the same compound, the EC50 in assay [20] is > 260 µM (inactive).
